In patent US11434490B2, “Fluorogen-binding RNA aptamers” (CENTRE NATIONAL DE LA RECHERCHE SCIENTIFIQUE, priority 2017, dated 2022):
Entries after “also recorded” stand apart in the source; their conditions may differ.

How the values were obtained:
[1] = Brightness and photophysics of Mango fluorophore complexes; format: physicochemical
Excerpt: FIG. 2|RNA Mango I, II, III and IV core sequences and their properties. (a) Color coded alignment of RNA Mango I, II, III and IV. G residues in yellow are protected from DMS cleavage (data from panel d) when folded in the presence of fluorophore. Quadruplex stacks and their associated propeller sequences are numbered 1 through 4. The GAAA isolation motif of Mango I, together with two adenines essential for binding, are shown in green and red respectively. Purple shading represents a flanking stem region common for all four Mango aptamers. Schematic: A tertiary structure schematic of Mango I, showing tier 1, 2 and 3 of its quadruplex structure (T1, T2 and T3) and color-coded as in (a). […] Bottom: Top view of the Mango I core (PBD ID: 5V3F), showing the T3 tier of the quadruplex and relevant propeller residues, color coding matches the schematic and panel a. […] KD values are shown next to each titration. (c) Same as for panel b but using 20 nM TO3-Biotin. Data for panels b and c have been normalized such that Mango I has a maximum fluorescence of 1. Error bars are standard deviation of three replicates. (d) DMS chemical protection patterns for the four Mango aptamers. 3′ end-labelled RNA (terminal ^32pCp shown as a black asterisk) was subjected to DMS chemical modification followed by reduction by NaBH4 and aniline cleavage as described in the methods. […] Legend: T1—denatured T1 ladder; OH—partial alkaline hydrolysis ladder; (−) DMS—denatured reaction with ddH2O added in place of DMS; 80° C.
FIG. 13|Photophysics: excitation/emission. (a) Excitation (dark curve) and emission (light curve) spectra of each Mango. All Mangos have Δex max=510 nm and Δem max=535 nm. Color-coding is as follows: Black—Mango I, Blue—Mango II, Green—Mango III, Red—Mango IV.
Fluorescence data was gathered using a Varian Cary Eclipse Spectrophotometer unless otherwise stated. […] Fluorescence was measured at the maximum excitation and emission wavelengths of each complex (FIG. 13).

[2] = Formaldehyde resistance assay; format: physicochemical; settings: in vitro, TO1-Biotin
Method: FIG. 15|Effect of formaldehyde on Mango fluorescence. […] In (b) RNA is incubated with the corresponding amounts of formaldehyde first for one hour, then TO1-Biotin is added. Data for each panel is normalized to RFU at the 0% formaldehyde, 0 min point.
RNA Mango aptamers were incubated with TO1-Biotin in WB buffer for at least one hour until equilibrium fluorescence was reached. […] Fluorescence was measured as a kinetic run at a rate of 2 readings per minute using a Varian Cary Eclipse Fluorescence Spectrophotometer, ex/em=510±2.5/535±5 nm.

[3] = Salt dependence of Mango/TO1-Biotin fluorescence: K+ titration; format: binding; settings: 25 nM RNA, 50 nM TO1-Biotin, 10 mM Tris pH 7.2
Method: FIG. 10|Salt dependence of new Mango variants. Dependence of fluorescence of each Mango for (a) K^+, (b) Na^+ in place of K^+, and (c) Mg^2+ ions in a buffer containing 140 mM K^+. […] 10 mM Tris buffer (pH 7.2) was used in place of phosphate of the WB buffer to avoid monovalent counter ions. Color-coding is as follows: Black—Mango I, Blue—Mango II, Green—Mango III, Orange—Mango IV. Hill coefficients are fitted to dark points. Points in lighter shade have been excluded from the fit. Error bars are standard deviations of three replicates.

Question: For “Mango-II: minimal construct engineered from isolate R2-1; SEQ ID NO: 6902 GCGUACGAAGGAGAGGAGAGGAAGAGGAGAGUACGC (chemistry not given here)”, which “quantum yield of the TO1-Biotin complex” value [1] is on record?
Answer: 0.21

Question: What about the “brightness of the TO1-Biotin bound complex” value ([1]; TO1-Biotin complex) of the same substance?
Answer: 17,000 M^−1cm^−1

Question: And the “brighter than Mango-I” value ([1]; TO1-Biotin, FIG. 2b)?
Answer: 1.5 fold

Question: What about the resistance to formaldehyde [2] of the same substance?
Answer: substantially resistant to formaldehyde; also recorded: remarkably formaldehyde resistant

Question: What about the Kd [3] of the same substance?
Answer: 39 ± 10 mM

Question: And the “Hill Coefficients K^+” value ([3]; * estimated from initial rise of fluorescence)?
Answer: 1.4 ± 0.2
